Where two headings read alike, the source gives them in different places.
Columns and labels:
Assay in all cases: biochemical
Design in all cases: Eurofins KinaseProfiler full panel at Km ATP, residual kinase activity (%) relative to DMSO
[1] = target: T1, GSK3β(h) (Homo sapiens, UniProt P49841)
T1 construct: gene GSK3B
Outline: (§1)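 Two 10 µM single-concentration screens were run: a competition-binding screen, in which DNA-tagged kinase bound to immobilized ligands was quantified by qPCR, and a radiometric activity panel at Km ATP. Each is expressed as residual kinase activity (%).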

[2] = target: T2, Itk(h) (Homo sapiens, UniProt Q08881)
T2 sequence (Q08881 1-620): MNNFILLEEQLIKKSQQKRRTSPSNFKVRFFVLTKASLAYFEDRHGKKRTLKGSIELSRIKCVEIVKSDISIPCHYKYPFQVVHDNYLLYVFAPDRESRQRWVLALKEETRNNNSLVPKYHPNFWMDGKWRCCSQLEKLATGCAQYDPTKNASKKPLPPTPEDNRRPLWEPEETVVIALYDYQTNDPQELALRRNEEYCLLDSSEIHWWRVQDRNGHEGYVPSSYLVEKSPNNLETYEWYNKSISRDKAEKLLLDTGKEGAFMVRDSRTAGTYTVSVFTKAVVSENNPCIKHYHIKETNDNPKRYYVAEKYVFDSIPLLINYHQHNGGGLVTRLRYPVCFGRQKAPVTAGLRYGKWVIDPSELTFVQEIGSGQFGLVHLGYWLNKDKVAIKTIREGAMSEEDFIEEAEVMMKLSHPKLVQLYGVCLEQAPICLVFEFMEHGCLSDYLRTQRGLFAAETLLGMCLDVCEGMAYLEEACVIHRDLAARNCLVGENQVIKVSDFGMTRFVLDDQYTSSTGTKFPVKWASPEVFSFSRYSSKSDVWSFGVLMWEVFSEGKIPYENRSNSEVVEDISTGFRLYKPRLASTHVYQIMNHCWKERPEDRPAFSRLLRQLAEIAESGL
Outline: as §1

[3] = target: T3, NEK1(h) (Homo sapiens, UniProt Q96PY6)
T3 sequence (Q96PY6 1-1258): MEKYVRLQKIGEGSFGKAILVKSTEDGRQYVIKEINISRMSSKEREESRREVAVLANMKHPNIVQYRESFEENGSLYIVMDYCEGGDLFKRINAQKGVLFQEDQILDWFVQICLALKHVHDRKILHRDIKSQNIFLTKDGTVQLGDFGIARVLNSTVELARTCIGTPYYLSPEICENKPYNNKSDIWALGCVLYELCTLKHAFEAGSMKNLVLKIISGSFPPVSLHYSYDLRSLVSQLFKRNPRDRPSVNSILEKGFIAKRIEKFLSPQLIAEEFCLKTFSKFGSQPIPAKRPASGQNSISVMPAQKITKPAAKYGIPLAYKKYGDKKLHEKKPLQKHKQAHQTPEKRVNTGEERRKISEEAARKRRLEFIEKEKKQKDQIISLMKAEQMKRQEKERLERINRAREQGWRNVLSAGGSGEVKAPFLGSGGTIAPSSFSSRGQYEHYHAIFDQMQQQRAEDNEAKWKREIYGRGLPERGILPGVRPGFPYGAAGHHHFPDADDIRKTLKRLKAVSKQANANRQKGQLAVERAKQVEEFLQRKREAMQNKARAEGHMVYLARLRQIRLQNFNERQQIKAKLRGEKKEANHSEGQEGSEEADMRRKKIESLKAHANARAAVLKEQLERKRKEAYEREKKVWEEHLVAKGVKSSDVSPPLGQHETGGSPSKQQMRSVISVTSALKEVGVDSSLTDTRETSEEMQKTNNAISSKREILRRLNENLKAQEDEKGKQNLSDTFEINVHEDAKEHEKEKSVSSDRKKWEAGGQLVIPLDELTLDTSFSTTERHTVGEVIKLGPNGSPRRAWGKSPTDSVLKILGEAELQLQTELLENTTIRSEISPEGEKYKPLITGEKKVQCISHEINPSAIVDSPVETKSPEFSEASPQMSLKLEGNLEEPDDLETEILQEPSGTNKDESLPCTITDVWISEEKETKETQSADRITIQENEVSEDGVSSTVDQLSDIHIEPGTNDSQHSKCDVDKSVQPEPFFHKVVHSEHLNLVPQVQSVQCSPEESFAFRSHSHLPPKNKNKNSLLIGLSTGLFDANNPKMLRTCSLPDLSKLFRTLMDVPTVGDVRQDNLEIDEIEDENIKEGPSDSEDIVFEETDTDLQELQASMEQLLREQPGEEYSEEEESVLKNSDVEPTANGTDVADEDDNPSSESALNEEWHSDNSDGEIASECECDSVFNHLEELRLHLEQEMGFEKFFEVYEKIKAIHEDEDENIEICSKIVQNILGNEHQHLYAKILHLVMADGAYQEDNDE
Outline: as §1

[4] = read-out: Residual activity (%) Spautin-1 5aa
[5] = read-out: Residual activity (%) 5as
[6] = read-out: Residual activity (%) 5at
[7] = read-out: Residual activity (%) 5ay

T1 sequence (P49841 whole entry): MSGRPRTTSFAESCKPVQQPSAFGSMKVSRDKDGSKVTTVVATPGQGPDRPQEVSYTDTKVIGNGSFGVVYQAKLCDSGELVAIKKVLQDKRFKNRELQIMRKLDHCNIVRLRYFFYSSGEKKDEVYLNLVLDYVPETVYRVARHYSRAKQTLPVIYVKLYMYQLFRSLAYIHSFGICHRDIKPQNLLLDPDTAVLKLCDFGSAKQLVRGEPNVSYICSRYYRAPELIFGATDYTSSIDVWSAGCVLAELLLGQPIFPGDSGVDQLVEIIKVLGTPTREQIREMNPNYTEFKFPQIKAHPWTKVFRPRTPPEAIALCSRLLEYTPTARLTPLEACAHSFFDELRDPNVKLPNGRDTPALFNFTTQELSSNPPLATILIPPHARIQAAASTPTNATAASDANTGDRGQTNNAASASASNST

Fc1ccc(CNc2ncnc3ccc(F)cc23)cc1 [5aa, 6-Fluoro-N-(4-fluorobenzyl)-4-Quinazolinamine]
remaining activity at 10 µM [1, 4]: 85% | remaining activity at 10 µM [2, 4]: 117% | remaining activity at 10 µM [3, 4]: 81%

Fc1ccc(CCNc2ncnc3ccc(F)cc23)cc1 [5as, 6-Fluoro-N-[2-(4-Fluorophenyl)Ethyl]-4-Quinazolinamine]
remaining activity at 10 µM [1, 5]: 91% | remaining activity at 10 µM [2, 5]: 97% | remaining activity at 10 µM [3, 5]: 97%

Fc1ccc2ncnc(NCCc3ccc(Cl)cc3)c2c1 [5at, N-[2-(4-Chlorophenyl)Ethyl]-6-Fluoro-4-Quinazolinamine]
remaining activity at 10 µM [1, 6]: 97% | remaining activity at 10 µM [2, 6]: 103% | remaining activity at 10 µM [3, 6]: 70%

COc1ccc2ncnc(Nc3cccc(F)c3)c2c1 [5ay, N-(3-Fluorophenyl)-6-Methoxy-4-Quinazolinamine]
remaining activity at 10 µM [1, 7]: 76% | remaining activity at 10 µM [2, 7]: 88% | remaining activity at 10 µM [3, 7]: 60%
